Assay results as given in EP0197829A1, “5H-pyrido[3',4':4,5]pyrrolo[3,2-c]pyridine derivatives, process for their preparation and their antitunour activity” (SANOFI, priority 1985, dated 1986).
Like-named read-outs stand apart in the source and are kept apart here.

What was measured:
leucémie P 388 = type: in vivo, souris hybrides CDF1
Excerpt: (§1) L'activité antitumorale a été testée in vivo sur différentes tumeurs selon le protocole général suivant : Toutes les souris mâles ou femelles sont inoculées par voie intrapéritonéale au jour Jo avec une quantité déterminée de cellules tumorales viables, variable selon la tumeur.
(§2) Elles sont ensuite réparties en différents lots. Chaque lot correspondant aux animaux traités par le produit à tester à une dose déterminée est composé de lO souris. Dans ce cas, le produit à tester est dissous dans l'eau distillée et il est administré, pendant n jours (J1-Jn) variables selon le protocole choisi, par voie intrapéritonéale à raison de 0,1 ml par lO g de poids des souris traitées, les doses du produit administré étant précisées dans les tableaux ci-dessous.
(§3) Le lot "Contrôle négatif", correspondant aux animaux qui ne sont pas traités par un produit, comprend 2 √N animaux, N étant égal au nombre total de souris traitées par un produit.
(§4) Enfin, tous lés essais sont conduits parallèlement à l'étude d'un lot appelé "Contrôle positif" de 10 animaux qui est traité par une molécule active, variable selon le protocole choisi, dans les mêmes conditions que les lots traités par le produit à tester, afin de valider l'essai.
(§5) L'activité antitumorale est évaluée en considérant l'augmentation du temps de survie des animaux traités par rapport à celui des animaux du lot "Contrôle négatif" selon la formule : • Jour médian de survie des animaux traités à une T/C = dose donnée de produit x 100 • Jour médian de survie des animaux "Contrôle négatif"
(§6) Un composé est considéré comme étant actif lorsque la valeur du rapport T/C est égale ou supérieure à 125 % selon le protocole retenu. Il est toxique lorsque cette valeur est égale ou inférieure à 85 %. Le produit est également considéré comme toxique lorsque la variation pondérale, exprimée en grammes et calculée par la formule : Poids moyen du lot mesuré au jour 5 - poids moyen du même lot au jour 1, est égale ou inférieure à -4g . a) Test de la leucémie P 388 (GERAN et al., Cancer Chemother, 1972, 2, 07-57).
Les essais sont effectués avec des souris hybrides CDF1 inoculées par voie intrapéritonéale avec […] leucémiques de la lignée P 388. Le composé à tester est administré pendant 5 jours (Jl-J5). Le contrôle positif du test est le 5-fluorouracile qui est administré dans les mêmes conditions.
[…] Un composé est considéré comme étant actif lorsque le rapport T/C est supérieur à 127 %.

leucémie L 1210 = test: L 1210 leukemia test in vivo; design: species or system souris hybrides CDF1; conditions: for Survivants: at day J 60
Excerpt: as §1, §2, §3, §4, §5, §6
b) Test de la leucémie L 1210 (GERAN et al., Cancer Chemother, 1972, 2, 07-57).
Les essais sont effectués avec des souris hybrides CDF1 inoculées avec 10^5 cellules leucémiques de la lignée L 1210. Le composé à tester est administré pendant 5 jours (J1-J5). Le contrôle positif du test est le 5-fluorouracile administré dans les mêmes conditions. Le nombre d'animaux survivants est évalué au jour J 60. Un composé est considéré comme étant actif lorsque le rapport T/C est supérieur ou égal à 125 %.

réticulosarcome M5-M5076 = test: M5-M5076 reticulosarcoma test in vivo; design: species or system souris hybrides BDF1; conditions: for Survivants: at day J 75
Excerpt: as §1, §2, §3, §4, §5, §6
d) Test du réticulosarcome M5-M5076.
Les essais sont effectués avec des souris hybrides BDF1 inoculées avec 10^6 cellules de la lignée M5-M5076. Le composé à tester est administré 5 fois successivement de façon séquentielle (Jl, 5, 9, 13, 17). Le contrôle positif du test est le cyclophosphamide administré dans les mêmes conditions. Le nombre d'animaux survivants est évalué au jour J 75. Un composé est considéré comme actif lorsque le rapport T/C est supérieur ou égal à 125 %.

[1] = 100 mg/kg i.p. J1, 5, 9, 13, 17
[2] = 150 mg/kg i.p. J1, 5, 9, 13, 17

CCN(CC)CCCNc1ncc(C)c2c1c1cnccc1n2C [Dérivé N° 4, [(diéthylamino-3 propyl-1)amino]-1 diméthyl-4,5 5-H pyrido[3',4':4,5]pyrrolo[3,2-c]pyridine]
Jour médian de survie (leucémie P 388; 5 mg/kg i.p. J1-J5): 14,25 | T/C % (leucémie P 388; 5 mg/kg i.p. J1-J5): 130% | Survivants (leucémie P 388; 5 mg/kg i.p. J1-J5, at day J 40): 0/10 | Jour médian de survie (leucémie P 388; 10 mg/kg i.p. J1-J5): 16,13 | T/C % (leucémie P 388; 10 mg/kg i.p. J1-J5): 147% | Survivants (leucémie P 388; 10 mg/kg i.p. J1-J5, at day J 40): 0/10 | Jour médian de survie (leucémie P 388; 20 mg/kg i.p. J1-J5): 18,0 | T/C % (leucémie P 388; 20 mg/kg i.p. J1-J5): 164% | Survivants (leucémie P 388; 20 mg/kg i.p. J1-J5, at day J 40): 0/10 | Jour médian de survie (leucémie P 388; 40 mg/kg i.p. J1-J5): 18,75 | T/C % (leucémie P 388; 40 mg/kg i.p. J1-J5): 172% | Survivants (leucémie P 388; 40 mg/kg i.p. J1-J5, at day J 40): 0/10 | Jour médian de survie (leucémie P 388; 50 mg/kg i.p. J1-J5): 25 | T/C % (leucémie P 388; 50 mg/kg i.p. J1-J5): 207% | Survivants (leucémie P 388; 50 mg/kg i.p. J1-J5, à J 42): 3/10 à J 42 | Jour médian de survie (leucémie P 388; 80 mg/kg i.p. J1-J5): 8,9 | T/C % (leucémie P 388; 80 mg/kg i.p. J1-J5): 81% | Survivants (leucémie P 388; 80 mg/kg i.p. J1-J5, at day J 40): 0/10 | Jour médian de survie (leucémie P 388; 1,25 mg/kg i.p. J1-J5): 12,6 | T/C % (leucémie P 388; 1,25 mg/kg i.p. J1-J5): 115% | Survivants (leucémie P 388; 1,25 mg/kg i.p. J1-J5, at day J 40): 0/10 | Jour médian de survie (leucémie P 388; 2,5 mg/kg i.p. J1-J5): 14,25 | T/C % (leucémie P 388; 2,5 mg/kg i.p. J1-J5): 130% | Survivants (leucémie P 388; 2,5 mg/kg i.p. J1-J5, at day J 40): 0/10 | Jour médian de survie (leucémie L 1210; 5 mg/kg i.p. J1-J5): 12,75 | T/C % (leucémie L 1210; 5 mg/kg i.p. J1-J5): 138% | Survivants (leucémie L 1210; 5 mg/kg i.p. J1-J5): 0 | Jour médian de survie (leucémie L 1210; 15 mg/kg i.p. J1-J5): 13,75 | T/C % (leucémie L 1210; 15 mg/kg i.p. J1-J5): 149% | Survivants (leucémie L 1210; 15 mg/kg i.p. J1-J5): 0 | Jour médian de survie (leucémie L 1210; 30 mg/kg i.p. J1-J5): 17,25 | T/C % (leucémie L 1210; 30 mg/kg i.p. J1-J5): 188% | Survivants (leucémie L 1210; 30 mg/kg i.p. J1-J5): 0 | Jour médian de survie (leucémie L 1210; 60 mg/kg i.p. J1-J5): 18,0 | T/C % (leucémie L 1210; 60 mg/kg i.p. J1-J5): 196% | Survivants (leucémie L 1210; 60 mg/kg i.p. J1-J5): 1 | Jour médian de survie (leucémie L 1210; 80 mg/kg i.p. J1-J5): 9,1 | T/C % (leucémie L 1210; 80 mg/kg i.p. J1-J5): 99% | Survivants (leucémie L 1210; 80 mg/kg i.p. J1-J5): 0 | Jour médian de survie (leucémie L 1210; 2,5 mg/kg i.p. J1-J5): 10,9 | T/C % (leucémie L 1210; 2,5 mg/kg i.p. J1-J5): 118% | Survivants (leucémie L 1210; 2,5 mg/kg i.p. J1-J5): 0 | Jour médian de survie (réticulosarcome M5-M5076; 10 mg/kg i.p. J1, 5, 9, 13, 17): 28,3 | T/C % (réticulosarcome M5-M5076; 10 mg/kg i.p. J1, 5, 9, 13, 17): 108% | Survivants (réticulosarcome M5-M5076; 10 mg/kg i.p. J1, 5, 9, 13, 17): 0 | Jour médian de survie (réticulosarcome M5-M5076; 25 mg/kg i.p. J1, 5, 9, 13, 17): 41,75 | T/C % (réticulosarcome M5-M5076; 25 mg/kg i.p. J1, 5, 9, 13, 17): 159% | Survivants (réticulosarcome M5-M5076; 25 mg/kg i.p. J1, 5, 9, 13, 17): 1 | Jour médian de survie (réticulosarcome M5-M5076; 50 mg/kg i.p. J1, 5, 9, 13, 17): 53,0 | T/C % (réticulosarcome M5-M5076; 50 mg/kg i.p. J1, 5, 9, 13, 17): 202% | Survivants (réticulosarcome M5-M5076; 50 mg/kg i.p. J1, 5, 9, 13, 17): 4 | Jour médian de survie (réticulosarcome M5-M5076; [1]): 48,0 | T/C % (réticulosarcome M5-M5076; [1]): 182% | Survivants (réticulosarcome M5-M5076; [1]): 2 | Jour médian de survie (réticulosarcome M5-M5076; [2]): 14,0 | T/C % (réticulosarcome M5-M5076; [2]): 53% | Survivants (réticulosarcome M5-M5076; [2]): 0
